Test results as given in patent US7115724B2, “Murine genomic polynucleotide sequence encoding a G-protein coupled receptor and methods of use therefor” (priority 2001, dated 2006).
Like-named read-outs stand apart in the source and are kept apart here.

Tests used:
[1] = target: T1, mouse P2T receptor (Mus musculus, UniProt Q9CPV9); test: Yeast cell-based assay of mouse P2T receptor agonist activation (β-galactosidase reporter); details: for rank order of potency of agonist stimulation of the mouse P2T receptor: yeast assay (FIG. 2)
T1 construct: Oligonucleotides corresponding to the 5′ and 3′ ends of the predicted protein coding region were used to amplify a fragment; expressed in transfected cells; host or cells: Saccharomyces cerevisiae MPY578 variant expressing a Gpa1-Gαt chimera, with pMP344 (p426GPD backbone) and the FUS1-LacZ reporter pMP283
Text: In order to facilitate coupling of the P2T receptor to G protein, MPY578 variant cells express chimeric G alpha proteins coupled to the mating signal transduction pathway. The chimeric constructs are expressed from the GPA1 locus and are composed of Gpa1 sequences in which the 5 C-terminal amino acids have been replaced with those of all the mammalian Gα proteins. A multicopy FUS1-LacZ reporter gene plasmid, pMP283, was introduced into P2T receptor-containing cells and selected on media lacking trp and ura. The resulting yeast strains were used for further analysis.
MPY578 cells that express Gpa1-Gαt chimeric G alpha protein and containing pMP344 and pMP283 were diluted in assay medium (SCD-ura-trp, pH 6.8, 25 mM PIPES, 1 mM 3-aminotriazole) dispensed (5×10^6/ml, 200 μl/well) to the wells of 96-well microtiter dishes containing purinergic ligands. The plates were incubated with shaking (600 rpm) at 30° C. for 3 hours. Samples (25 μl) were transferred to Wallac B & W isoplates for β-galactosidase assay. An equal volume of GAL-SCREEN lysis and chemiluminescent β-galactosidase assay mixture was added. The plates were incubated for 30 min at 30° C. and light emission measured using a Wallac Victor II. Assays were conducted in quadruplicate and results were plotted using GraphPad Prizm.

[2] = target: T2, mouse P2Y12 (Mus musculus, UniProt Q9CPV9); test: Agonist-induced release of intracellular calcium (FLIPR) in NIH3T3 cells expressing mouse P2Y12 and chimeric Gαq/i3; type: cell-based; details: for rank order of potency of agonist stimulation of the mouse P2Y12 receptor in FLIPR: NIH3T3 Gαq/i3 cells (FIG. 4)
T2 construct: expressed in transfected cells; host or cells: NIH3T3 cells stably transfected with pCDNA-Gαq/i3 and pCDNA3.1-mP2Y12
Experimental: Mammalian cell expression and measurement of intracellular calcium. NIH3T3 cells were stably transfected with pCDNA-Gαq/i3 by electroporation and cultured in the presence of 800 μg/ml neomycin. The NIH3T3 Gαq/i3 line was subsequently stably transfected with pCDNA3.1-mP2Y12 by electroporation and cultured in the presence of 800 μg/ml neomycin and 400 μg/ml hygromycin. Cells were plated without selection and grown overnight at 37° C. The cells were washed with Hank's balanced salt solution without phenol red plus 20 mM HEPES, 2.5 mM probenecid, pH 7.4 and loaded with wash solution plus 5 μM Fluo-4, 0.04% pluronic acid and 1% fetal bovine serum for 1 hour at 37° C. After removing the dye solution and washed with wash buffer, agonists were added and analyzed using the FLIPR (PE Biosystems) to measure accumulation of intracellular calcium in response to compound treatments.
In published reports, Xenopus oocytes injected with the human P2Y12 receptor cRNA and coupled to stimulation of coinjected Kir3.1/Kir3.2 inwardly rectifying K+ currents, the EC50 was 300 nM (Hollopeter, 2001). […] The rank orders of potency of agonist stimulation of the mouse P2Y12 receptor in FLIPR (2MeSADP>ADP=ADPβS>ATPγS) agree well with reported values for the human P2Y12 receptor measured in FLIPR (2MeSADP=2MeSATP>ADP=ADPβS>2CIATP>ATPγS) and in adenylyl cyclase inhibition assays (2MeSATP>2MeSADP>ADP>ATPγS>ADPβS>2CIATP) (Zhang, 2001).

[3] = target: T3, human P2Y12 receptor (Homo sapiens, UniProt Q9H244); details: Xenopus oocytes injected with P2T (human P2Y12) receptor cRNA; Hollopeter et al., 2001; read-out: EC50, stimulation of Kir3.1/Kir3.2 inwardly rectifying K+ currents; cited from earlier work
[4] = target: T3, human P2Y12 receptor; details: Zhang et al., 2001, cited from earlier work; for rank order of potency, human P2T (P2Y12) receptor in adenylyl cyclase inhibition assays: reported values
[5] = target: T3, human P2Y12 receptor; set-up: host or cells: NIH3T3 cells with a chimeric Gq/i3 construct (FLIPR); details: cited from earlier work; for rank order of potency, human P2T (P2Y12) receptor measured in FLIPR: reported values, Zhang et al., 2001

T1 sequence (Q9CPV9 whole entry, the tested form may be a part): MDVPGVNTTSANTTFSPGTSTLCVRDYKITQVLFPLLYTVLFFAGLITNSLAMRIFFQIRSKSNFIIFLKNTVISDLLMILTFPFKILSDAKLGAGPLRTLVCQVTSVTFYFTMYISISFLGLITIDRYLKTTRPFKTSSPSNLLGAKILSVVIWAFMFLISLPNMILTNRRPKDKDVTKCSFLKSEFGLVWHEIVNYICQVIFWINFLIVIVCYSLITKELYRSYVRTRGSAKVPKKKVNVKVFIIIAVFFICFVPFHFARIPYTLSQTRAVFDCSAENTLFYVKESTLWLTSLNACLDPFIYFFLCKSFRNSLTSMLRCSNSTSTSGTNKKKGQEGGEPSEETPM
T2 sequence (Q9CPV9 whole entry): as the sequence (Q9CPV9 whole entry, the tested form may be a part) above
T3 sequence (Q9H244 whole entry): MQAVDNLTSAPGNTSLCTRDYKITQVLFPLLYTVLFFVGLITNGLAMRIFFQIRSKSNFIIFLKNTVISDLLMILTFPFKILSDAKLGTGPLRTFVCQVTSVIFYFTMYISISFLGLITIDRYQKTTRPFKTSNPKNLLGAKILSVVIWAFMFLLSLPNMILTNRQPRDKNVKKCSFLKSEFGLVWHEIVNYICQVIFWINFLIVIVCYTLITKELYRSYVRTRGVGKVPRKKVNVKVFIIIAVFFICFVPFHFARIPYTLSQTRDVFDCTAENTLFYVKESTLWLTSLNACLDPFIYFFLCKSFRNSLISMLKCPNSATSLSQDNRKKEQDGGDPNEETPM

SMILES | EC50 ([1]; MPY578 yeast cells, β-galactosidase reporter, read-out: EC50 for ADP stimulation of the mouse P2T assayed in yeast) [µM] | rank order of potency of agonist stimulation of the mouse P2T receptor [1] | EC50 ([2]; FLIPR, NIH3T3 Gαq/i3 cells, read-out: EC50 for ADP stimulation of the mouse P2Y12 dependent release of intracellular calcium) [µM] | rank order of potency of agonist stimulation of the mouse P2Y12 receptor in FLIPR [2] [MeSADP>ADP=ADPβS>ATPγS] | EC50 [3] [µM] | EC50 ([4]; read-out: EC50, ADP dependent inhibition of cAMP accumulation) [µM] | rank order of potency, human P2T (P2Y12) receptor in adenylyl cyclase inhibition assays [4] | EC50 ([5]; NIH3T3 cells, receptor with chimeric Gq construct, literature value, read-out: EC50 measured by FLIPR) [µM] | rank order of potency, human P2T (P2Y12) receptor measured in FLIPR [5]
Nc1ncnc2c1ncn2[C@@H]1O[C@H](COP(=O)(O)OP(=O)(O)O)[C@@H](O)[C@H]1O [ADP] | 0.256 | 2MeSADP>2MeSATP>ADP=ADPβS>ATPγS>2CIATP | 0.027 | 2 | 0.3 | 0.061 | 2MeSATP>2MeSADP>ADP>ATPγS>ADPβS>2CIATP | 0.074 | 2MeSADP=2MeSATP>ADP =ADPβS>2CIATP>ATPγS
CSc1nc(N)c2ncn([C@@H]3O[C@H](COP(=O)(O)OP(=O)(O)O)[C@@H](O)[C@H]3O)c2n1 [2MeSADP] | – | 2MeSADP>2MeSATP>ADP=ADPβS>ATPγS>2CIATP | – | 2 | – | – | 2MeSATP>2MeSADP>ADP>ATPγS>ADPβS>2CIATP | – | 2MeSADP=2MeSATP>ADP =ADPβS>2CIATP>ATPγS
Nc1ncnc2c1ncn2[C@@H]1O[C@H](COP(=O)(O)OP(=O)(O)OP(O)(O)=S)[C@@H](O)[C@H]1O [ATPγS] | – | 2MeSADP>2MeSATP>ADP=ADPβS>ATPγS>2CIATP | – | 2 | – | – | 2MeSATP>2MeSADP>ADP>ATPγS>ADPβS>2CIATP | – | 2MeSADP=2MeSATP>ADP =ADPβS>2CIATP>ATPγS
CSc1nc(N)c2ncn([C@@H]3O[C@H](COP(=O)(O)OP(=O)(O)OP(=O)(O)O)[C@@H](O)[C@H]3O)c2n1 [2MeSATP] | – | 2MeSADP>2MeSATP>ADP=ADPβS>ATPγS>2CIATP | – | – | – | – | 2MeSATP>2MeSADP>ADP>ATPγS>ADPβS>2CIATP | – | 2MeSADP=2MeSATP>ADP =ADPβS>2CIATP>ATPγS
Nc1ncnc2c1ncn2[C@@H]1O[C@H](COP(=O)(O)OP(O)(O)=S)[C@@H](O)[C@H]1O [ADPβS] | – | 2MeSADP>2MeSATP>ADP=ADPβS>ATPγS>2CIATP | – | 2 | – | – | 2MeSATP>2MeSADP>ADP>ATPγS>ADPβS>2CIATP | – | 2MeSADP=2MeSATP>ADP =ADPβS>2CIATP>ATPγS
Nc1nc(Cl)nc2c1ncn2[C@@H]1O[C@H](COP(=O)(O)OP(=O)(O)OP(=O)(O)O)[C@@H](O)[C@H]1O [2CIATP] | – | 2MeSADP>2MeSATP>ADP=ADPβS>ATPγS>2CIATP | – | – | – | – | 2MeSATP>2MeSADP>ADP>ATPγS>ADPβS>2CIATP | – | 2MeSADP=2MeSATP>ADP =ADPβS>2CIATP>ATPγS
